For the assay, the target named is T1, human mPGES-1 (Homo sapiens, UniProt O14684).
T1 sequence (O14684 1-152): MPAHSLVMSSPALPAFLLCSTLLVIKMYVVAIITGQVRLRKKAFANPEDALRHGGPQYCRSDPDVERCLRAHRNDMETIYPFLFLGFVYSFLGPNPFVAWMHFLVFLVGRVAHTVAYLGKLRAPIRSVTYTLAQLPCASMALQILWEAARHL
In words: Microsomal prostaglandin E synthase biochemical assay. The following applies: microsome preparation containing human mPGES-1; PGH2 10.8 μM, GSH 2.5 mM, pH 6.8; PGE2 quantified by HTRF; average of at least n=2. The essentials: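 Human mPGES-1 microsomes (from IL-1β-stimulated A549 cells or Sf9 cells expressing human mPGES-1) were pre-incubated 15 min with compound in potassium phosphate buffer pH 6.8 with GSH. PGH2 was then added, and the reaction was stopped after one minute with acidic ferric chloride/citrate. PGE2 was read by HTRF, and IC50 was taken from control-normalised activity.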

Regarding `C[C@]1(C(=O)NS(=O)(=O)c2ccccc2S(N)(=O)=O)CC[C@H](c2cc3ccccc3o2)CC1` [Example 108, (1r,4r)-4-(Benzofuran-2-yl)-1-methyl-N-(2-sulfamoylphenylsulfonyl)cyclohexane-carboxamide], the IC50 was found to be 7000 nM.
The value for `C[C@]1(C(=O)NS(=O)(=O)c2ccccc2S(N)(=O)=O)CC[C@@H](c2cc3ccccc3o2)CC1` [Example 109, (1s,4s)-4-(Benzofuran-2-yl)-1-methyl-N-(2-sulfamoylphenylsulfonyl) cyclohexane-carboxamide] was 270 nM; that for `COc1cc(C(=O)NS(=O)(=O)c2ccccc2S(N)(=O)=O)ccc1C#CC(C)(C)C` [Example 110, 4-(3,3-Dimethylbut-1-ynyl)-3-methoxy-N-(2-sulfamoylphenylsulfonyl)benzamide] was 270 nM.
`COC(C)(C)C#Cc1ccc(C(=O)NS(=O)(=O)c2ccccc2S(N)(=O)=O)cc1` [Example 112, 4-(3-Methoxy-3-methylbut-1-ynyl)-N-(2-sulfamoylphenylsulfonyl)benzamide] displayed a concentration for half-maximal inhibition (IC50) of 1400 nM.
`CC(C)C#Cc1ccc(C(=O)NS(=O)(=O)c2ccccc2S(N)(=O)=O)cc1` [Example 113, 4-(3-Methylbut-1-ynyl)-N-(2-sulfamoylphenylsulfonyl)benzamide]: the IC50 is 80 nM.
As for `COc1cc(C(=O)NS(=O)(=O)c2ccccc2S(N)(=O)=O)ccc1C#CC(C)(C)OC` [Example 114, 3-Methoxy-4-(3-methoxy-3-methylbut-1-ynyl)-N-(2-sulfamoylphenylsulfonyl)-benzamide], the figure is 1600 nM; as for `COC(C)(C)C#Cc1ccc(C(=O)NS(=O)(=O)c2ccccc2S(N)(=O)=O)cc1O` [Example 115, 3-Hydroxy-4-(3-methoxy-3-methylbut-1-ynyl)-N-(2-sulfamoylphenylsulfonyl)-benzamide], 4300 nM.
As for `CC(C)(C)C#Cc1ccc(C(=O)NS(=O)(=O)c2ccccc2S(N)(=O)=O)cn1` [Example 116, 6-(3,3-Dimethylbut-1-ynyl)-N-(2-sulfamoylphenylsulfonyl)nicotinamide], the figure is 350 nM; as for `NS(=O)(=O)c1ccccc1S(=O)(=O)NC(=O)c1ccc(-c2cc3ccccc3o2)nc1` [Example 117, 6-(Benzofuran-2-yl)-N-(2-sulfamoylphenylsulfonyl)nicotinamide], 180 nM; as for `COCCOCCOc1cc(C(=O)NS(=O)(=O)c2ccccc2S(N)(=O)=O)ccc1C#CC(C)(C)C` [Example 118, 4-(3,3-Dimethylbut-1-ynyl)-3-(2-(2-methoxyethoxy)ethoxy)-N-(2-sulfamoylphenyl-sulfonyl)benzamide], 620 nM.
On to `COCCOCCOc1cc(C(=O)NS(=O)(=O)c2ccccc2S(N)(=O)=O)ccc1-c1cc2ccccc2o1` [Example 119, 4-(Benzofuran-2-yl)-3-(2-(2-methoxyethoxy)ethoxy)-N-(2-sulfamoylphenylsulfonyl)-benzamide], for which the half-maximal inhibitory concentration (IC50) came to 17 nM.
`COc1ccccc1-c1cc2cc(C(=O)NS(=O)(=O)c3ccccc3S(N)(=O)=O)ccc2o1` [Example 120, 2-(2-Methoxyphenyl)-N-(2-sulfamoylphenylsulfonyl)benzofuran-5-carboxamide] had an IC50 of 28 nM.
Compound `CC(OC(C)(C)C)c1cc2cc(C(=O)NS(=O)(=O)c3ccccc3S(N)(=O)=O)ccc2o1` (stereo not drawn) [Example 121, 2-(1-tert-Butoxyethyl)-N-(2-sulfamoylphenylsulfonyl)benzofuran-5-carboxamide] registered a half-maximal inhibitory concentration (IC50) of 2100 nM.
As to `NS(=O)(=O)c1ccccc1S(=O)(=O)NC(=O)c1ccc2oc(-c3ccccn3)cc2c1` [Example 122, 2-(Pyridin-2-yl)-N-(2-sulfamoylphenylsulfonyl)benzofuran-5-carboxamide], the half-inhibitory concentration (IC50) was 650 nM.
As for `NS(=O)(=O)c1ccccc1S(=O)(=O)NC(=O)c1ccc2oc(-c3cccnc3)cc2c1` [Example 123, 2-(Pyridin-3-yl)-N-(2-sulfamoylphenylsulfonyl)benzofuran-5-carboxamide], the figure is 2000 nM; as for `CC(C)(O)c1cc2cc(C(=O)NS(=O)(=O)c3ccccc3S(N)(=O)=O)ccc2o1` [Example 124, 2-(2-Hydroxypropan-2-yl)-N-(2-sulfamoylphenylsulfonyl)benzofuran-5-carboxamide], 21000 nM.
`COC(C)(C)c1cc2cc(C(=O)NS(=O)(=O)c3ccccc3S(N)(=O)=O)ccc2o1` [Example 125, 2-(2-Methoxypropan-2-yl)-N-(2-sulfamoylphenylsulfonyl)benzofuran-5-carboxamide] showed a half-inhibitory concentration (IC50) of 12000 nM.
The value for `NS(=O)(=O)c1ccccc1S(=O)(=O)NC(=O)c1ccc2oc(C3CC3)cc2c1` [Example 126, 2-Cyclopropyl-N-(2-sulfamoylphenylsulfonyl)benzofuran-5-carboxamide] was 260 nM.
As for `CC(C)Oc1cc(C(=O)NS(=O)(=O)c2ccccc2S(N)(=O)=O)ccc1-c1cc2ccccc2o1` [Example 127, 4-(Benzofuran-2-yl)-3-isopropoxy-N-(2-sulfamoylphenylsulfonyl)benzamide], the figure is 9.5 nM; as for `CC(C)Oc1cc(C(=O)NS(=O)(=O)c2ccccc2S(N)(=O)=O)ccc1C#CC(C)(C)C` [Example 128, 4-(3,3-Dimethylbut-1-ynyl)-3-isopropoxy-N-(2-sulfamoylphenylsulfonyl)benzamide], 45 nM; as for `CC(C)Oc1cc(C(=O)NS(=O)(=O)c2ccccc2S(N)(=O)=O)ccc1C#CC(C)(C)O` [Example 129, 4-(3-Hydroxy-3-methylbut-1-ynyl)-3-isopropoxy-N-(2-sulfamoylphenylsulfonyl)-benzamide], 7000 nM.
As for `CC(C)Oc1cc(C(=O)NS(=O)(=O)c2ccccc2S(N)(=O)=O)ccc1C#CC1CCCC1` [Example 130, 4-(Cyclopentylethynyl)-3-isopropoxy-N-(2-sulfamoylphenylsulfonyl)benzamide], the figure is 20 nM; as for `CC(C)Oc1cc(C(=O)NS(=O)(=O)c2ccccc2S(N)(=O)=O)ccc1C#CC1CCCCC1` [Example 131, 4-(Cyclohexylethynyl)-3-isopropoxy-N-(2-sulfamoylphenylsulfonyl)benzamide], 14 nM.
`CC(C)Oc1cc(C(=O)NS(=O)(=O)c2ccccc2S(N)(=O)=O)ccc1C#CC1CC1` [Example 132, 4-(Cyclopropylethynyl)-3-isopropoxy-N-(2-sulfamoylphenylsulfonyl)benzamide]: half-maximal inhibition (IC50) required 110 nM.
The value for `CC(C)Oc1cc(C(=O)NS(=O)(=O)c2ccccc2S(N)(=O)=O)ccc1C#CC1(O)CCCCCC1` [Example 133, 4-((1-Hydroxycycloheptyl)ethynyl)-3-isopropoxy-N-(2-sulfamoylphenylsulfonyl)-benzamide] was 560 nM.
As for `COCCOCCOc1cc(C(=O)NS(=O)(=O)c2ccccc2S(N)(=O)=O)cnc1C#CC(C)(C)C` [Example 134, 6-(3,3-Dimethylbut-1-ynyl)-5-(2-(2-methoxyethoxy)ethoxy)-N-(2-sulfamoylphenyl-sulfonyl)nicotinamide], the figure is 180 nM; as for `COCCOCCOc1cc(C(=O)NS(=O)(=O)c2ccccc2S(N)(=O)=O)cnc1-c1cc2ccccc2o1` [Example 135, 6-(Benzofuran-2-yl)-5-(2-(2-methoxyethoxy)ethoxy)-N-(2-sulfamoylphenylsulfonyl)-nicotinamide], 81 nM; as for `COCCOCCOc1cc(C(=O)NS(=O)(=O)c2ccccc2S(N)(=O)=O)cnc1C#CC1CCCC1` [Example 136, 6-(Cyclopentylethynyl)-5-(2-(2-methoxyethoxy)ethoxy)-N-(2-sulfamoylphenyl-sulfonyl)nicotinamide], 65 nM.
As to `COc1cc(C(=O)NS(=O)(=O)c2ccccc2S(N)(=O)=O)cnc1C#CC1CCCC1` [Example 137, 6-(Cyclopentylethynyl)-5-methoxy-N-(2-sulfamoylphenylsulfonyl)nicotinamide], the half-inhibitory concentration (IC50) is 20 nM.
As for `COc1cc(C(=O)NS(=O)(=O)c2ccccc2S(N)(=O)=O)cnc1C#CC1CCCCC1` [Example 138, 6-(Cyclohexylethynyl)-5-methoxy-N-(2-sulfamoylphenylsulfonyl)nicotinamide], the figure is 12 nM; as for `COc1cc(C(=O)NS(=O)(=O)c2ccccc2S(N)(=O)=O)cnc1C#Cc1ccc(C(F)(F)F)cc1` [Example 139, 5-Methoxy-N-(2-sulfamoylphenylsulfonyl)-6-((4-(trifluoromethyl)phenyl)-ethynyl)nicotinamide], 6.8 nM; as for `NS(=O)(=O)c1ccccc1S(=O)(=O)NC(=O)c1ccc2[nH]c(-c3ccccc3)cc2c1` [Example 140], 140 nM.
The value for `COCCn1c(-c2ccccc2)cc2cc(C(=O)NS(=O)(=O)c3ccccc3S(N)(=O)=O)ccc21` [Example 141, 1-(2-Methoxyethyl)-2-phenyl-N-(2-sulfamoylphenylsulfonyl)-1H-indole-5-carboxamide] was 300 nM.
As for `CC(C)Oc1cc(C(=O)NS(=O)(=O)c2ccccc2S(N)(=O)=O)cnc1C#CC1CC1` [Example 142, 6-(cyclopropylethynyl)-5-isopropoxy-N-(2-sulfamoylphenylsulfonyl)nicotinamide], the figure is 49 nM; as for `CC(C)Oc1cc(C(=O)NS(=O)(=O)c2ccccc2S(N)(=O)=O)cnc1C#CC1CCCC1` [Example 143, 6-(Cyclopentylethynyl)-5-isopropoxy-N-(2-sulfamoylphenylsulfonyl)nicotinamide], 14 nM.
Compound `CC(C)Oc1cc(C(=O)NS(=O)(=O)c2ccccc2S(N)(=O)=O)cnc1C#CC1CCCCC1` [Example 144, 6-(Cyclohexylethynyl)-5-isopropoxy-N-(2-sulfamoylphenylsulfonyl)nicotinamide] displayed a half-inhibitory concentration (IC50) of 11 nM.

Source of the values: patent US20090131468A1, “Bis-(Sulfonylamino) Derivatives in Therapy 065” (AstraZeneca AB, priority 2007, published 2009).
